Results reported in patent publication US20250136934A1, “PRODUCTION OF INDUCED MIDBRAIN DOPAMINERGIC PROGENITOR CELLS FROM PLURIPOTENT STEM CELLS” (NUWACELL BIOTECHNOLOGIES CO., LTD., priority 2023, published 2025).

Test system: EN1 and LMX1A
Assay: qRT-PCR analysis of ventral midbrain markers EN1 and LMX1A in imDAP cells
Format: cell-based, human
Settings: 3-step protocol
Experimental: (1) qRT-PCR • 1. For qRT-PCR analysis of mRNA gene expression, RNA should be harvested from at least 2×10^6 cells. • 2. Harvest cells, add 350 μl of buffer RLT+1% (vol/vol) β-mercaptoethanol to the well, transfer the lysate to a 1.5 ml tube, and put it immediately on ice. • 3. Perform RNA extraction using the Tiangen Kit (DP430) and following the manufacturer's protocol ‘Purification of total RNA from animal and human cells’. • 4. When the RNA extraction was completed, determine the RNA concentration using a Nanodrop instrument. • 5. Perform the first-strand cDNA synthesis reaction with 1 μg of RNA using the HiScript™ II Q RT SuperMIX for qPCR (+gDNA wiper) Kit (Vazyme, #R223-01) for RT-qPCR. Follow the manufacturer's ‘First-Strand cDNA Synthesis’ protocol. This reaction would yield a 20 μl product. • 6. Dilute 10 μl cDNA product in 80 μl of nuclease-free water. • 7. Pipette the diluted cDNA product (1 μl), Sybr green master mix (5 μl, Transgen, #AQ131) and 0.95 μM reverse/forward primer mix (4 μl) into a 384-well PCR plate in triplicate, either manually or using an automated pipetting robot. The complete primer panel included the target genes and the housekeeping gene (RPL13A). In the analysis, the expression level of gene was determined by using a sample of undifferentiated hPSCs as control. • 8. Analyze the samples by running a quantitative PCR on the LightCycler 480 instrument using a 40x cycle two-step protocol with a 60° C., 60 sec annealing/elongation step and a 95° C., 30 sec denaturation step. The average CT value from the three technical replicates was used for calculation of relative gene expression using the ΔΔCT method. […]
On Day-1, EB formation (Stage 1) was carried out by dissociating hiPSCs (Nuwacell) to form a single-cell suspension and resuspending it in Epic medium (Nuwacell, #RP01001) containing 10 μM Blebbistatin (MCE, #HY-13441) in T25 flasks on a belly dancer and culturing the cells overnight. […] On Day 16 (at the end of S2-2), imDAP cells were collected and analyzed by qRT-PCR assay for ventral midbrain marker EN1 and LMX1A. […]

Cc1cnc(-c2cnc(NCCNc3ccc(C#N)cn3)nc2-c2ccc(Cl)cc2Cl)[nH]1 [CHIR, CHIR99021]
expression levels of EN1 and LMX1A (CHIR 5 μM and 7.5 μM compared to 10 μM): better results | expression levels of EN1 and LMX1A (CHIR 7.5 μM Stage 2-2 from Day 3 to Day 6 versus Day 3 to Day 10): comparable | expression levels of EN1 and LMX1A (high CHIR 5, 7.5 or 10 μM Day 3 to Day 10, relative to the 2-step protocol): increased
